Test results taken from US20230233545A1, “TREATMENT OF ATRIAL DYSFUNCTION” (MyoKardia, Inc., priority 2020, published 2023).

System: dogs with microembolization-induced heart failure
Assay: Echocardiography/haemodynamics in dogs with microembolization-induced heart failure
Type: in vivo, beagle dogs
Details: 2-3 mg/kg orally, 5 hours post-treatment
Description: Seven male beagle dogs underwent a modified serial coronary microembolization protocol to produce chronic LV dysfunction and HF (Geist et al., J Pharmacol Toxicol Methods (2019) 99:106595), as determined by both LV remodeling and decreases in LV ejection fraction (LVEF). A subset of animals (n=5) were also surgically implanted with a radio-telemetry transmitter (TL11M3-D70-PCTP; Data Sciences Int., MN, USA) to provide systemic arterial blood and LV pressures. The microembolization and instrumentation techniques employed have been previously validated (Hartman et al., JACC Basic Transl Sci. (2018) 3(5):625-38).
The effects of Compound I (at 2-3 mg/kg oral tablet; n=14) on LV/LA function and geometry, as well as systemic/ventricular haemodynamics, were examined by echocardiography in conscious, lightly sedated animals (butorphanol 0.25-0.5 mg/kg intravenous) before dosing (i.e., baseline) as well at 5 hours post-treatment.
In these experiments, 2D and 2D-guided M-mode echocardiographic (CX50; Philips Medical System, MA, USA) recordings of LV dimension, LA dimension (LAd) and aortic dimension (Aod), as well as LV volume estimates (Simpson's and Teichholz's methods), were obtained at end-systole/diastole in both short-axis (papillary-level) and/or apical/parasternal long-axis views. From these measurements, LV stroke volume (LVSV), cardiac output (CO), LV fractional shortening (LVFS), LV fractional area of shortening and LVEF, as well as the LAd/Aod ratio, were calculated. LV outflow tract (LVOT) blood velocity (via Doppler) was measured and the LVOT velocity−time integral (LVOT−VTI) calculated. In addition, maximal (end-systolic, LAmax) and minimal (end-diastolic, LAmin) LA volumes were measured using the bi-plane method; both LA emptying fraction (LAEF=100×[LAmax−LAmin]/LAmax) and LA functional index (LAFI=[LAEF×LVOT−VTI]/LAmax index) were calculated (Thomas et al., Eur J Echocardiogr (2008) 9(3):356-362). Diastolic trans-mitral peak flow velocities (E and A), mitral-annulus tissue velocities (e′, s′ and a′), and their ratios during early filling (E/e′), were recorded/used as indices of diastolic performance. In all cases, atrial and ventricular indexed volumes were calculated by normalizing to the estimated body surface area (0.101×[body weight in kg][…]), while reported data were derived by averaging at least three cardiac cycles. Finally, haemodynamic signals were digitally acquired (1000 Hz) and recorded continuously with a data acquisition/analysis system (IOX; EMKA Technologies). Heart rate (HR) and end-systolic and end-diastolic pressures, as well as the peak rates of pressure rise and decline (dP/dtmax and dP/dtmin, respectively), the contractility index (dP/dt/P at dP/dtmax), and the time constant of myocardial relaxation (tau1/2, time for 50% decay from dP/dtmin) were derived from the LV pressure signal. Systolic, diastolic and mean systemic blood pressures, as well as pulse pressures, were derived from the aortic pressure signal. Haemodynamic data were reported as the average over at least 1 minute (at steady state). In vivo data are presented as means (SD) in the text or as mean±SEM in the figures; mean differences between pre- and post-treatment values were evaluated via a two-tailed paired t-test with a significance level of 0.05 set a priori (GraphPad Prism, GraphPad Software Inc., CA, USA).

Cn1cc(S(=O)(=O)[C@@](C)(F)C2CCN(C(=O)Nc3ccon3)CC2)c(C(F)F)n1 [Compound I, (R)-4-(1-((3-(difluoromethyl)-1-methyl-1H-pyrazol-4-yl)sulfonyl)-1-fluoroethyl)-N-(isoxazol-3-yl)piperidine-1-carboxamide]
LVESD (SD ±0.2, baseline 3.4 (±0.2), p<0.05): 3.2 cm | E/A (SD ±0.3, baseline 1.6 (±0.2)): 1.6 | LVEDD (SD ±0.3, baseline 4.3 (±0.2)): 4.3 cm | e′ (mitral annular velocity) (SD ±1.1, baseline 7.4 (±1.0)): 7.3 cm/s | a′ (late peak mitral annular velocity) (SD ±1.3, baseline 4.0 (±1.2), p<0.05): 5.4 cm/s | CO (cardiac output, estimated) (SD ±1.6, baseline 3.4 (±0.9), p<0.05): 4.1 L/min | LVFS (SD ±3.6, baseline 19.6 (±2.7), p<0.05): 25.6% | LVGCS (LV global circumferential strain) (SD ±4.4, baseline −13.5 (±4.4), p<0.05): −17.3% | LVEF (SD ±6, baseline 41 (±5), p<0.05): 51% | LAFI (left atrial functional index) (SD ±6.5, baseline 7.7 (±3.3), p<0.05): 15.2 | LAEF (left atrial emptying fraction) (SD ±6.9, baseline 20.4 (±4.4), p<0.05): 31.1% | A (late peak wave velocity, mitral inflow) (SD ±8, baseline 41 (±6)): 46 cm/s | LAmin Vol. index (LAminVi) (SD ±9.0, baseline 21.2 (±8.3), p<0.05): 17.9 mL/m^2 | LAmax Vol. index (SD ±9.7, baseline 26.7 (±9.7), p<0.05): 25.1 mL/m^2 | DBP (diastolic blood pressure) (SD ±13, baseline 66 (±10)): 72 mmHg | E (early trans-mitral peak wave velocity) (SD ±40, baseline 71 (±12)): 74 cm/s | SET (systolic ejection time) (baseline 178 (±24), p<0.05): 200 ms | LVSV (left ventricular stroke volume) (mean, SD ±10.7, baseline 33.0 (±5.9), p<0.05): 43.6 mL | E/e′ (n/u, SD ±1.2, baseline 9.7 (±1.9)): 10.2 | LVEDP (LV end-diastolic pressure) (telemetry subset, SD ±4, baseline 18 (±2)): 16 mmHg | SBP (systolic blood pressure) (telemetry subset, SD ±10, baseline 110 (±10)): 119 mmHg | HR (heart rate) (telemetry subset, SD ±50, baseline 108 (±45), p<0.05): 99 bpm
